Assay results as given in US7101568B2, “Methods and compositions for treating solid tumors” (Guilford Pharmaceuticals, Inc., priority 1999, dated 2006).

Experiments:
H1299 tumor nodules = test: Murine tumor nodule model, H1299 tumor volume doubling time; assay type: in vivo, mouse; settings: H1299, 24 mg/kg paclitaxel
Protocol: A murine tumor nodule model, a widely used and accepted model for investigating the efficacy of therapies for solid tumors, was used to establish the utility of sustained release for solid tumors. Athymic nude Balb/c mice were engrafted with human non-small cell lung cancer cell lines (A549 and H1299, both of which were obtained from the American Type Culture Collection).
(§1) The cells were grown to confluence in DMEM/F12 medium (Mediatech, Herndon, Va.) supplemented with 10% fetal bovine serum (“growth medium”) under antibiotic-free conditions at 37° in a 5% CO2 atmosphere. After growing under standard these tissue culture conditions, the cells were enzymatically detached, enumerated, and the concentration was adjusted as required.
(§2) The cells were mixed 1:1 with Matrigel™ as an enhancer for engraftment, and 2×10^6 cells were injected subcutaneously on the flanks. Tumors were allowed to grow until achieving a volume of approximately 200-400 mm^3, as determined by the formula: Tumor volume=(length)×(width)×(height) The dimensions of the tumor on each test animal were measured directly with calipers.
Various formulations of paclitaxel were administered to the test animals bearing tumors, either systemically or intratumorally. Each animal was weighed at the time of treatment so that dosages could be adjusted to achieve the mg/kg amounts reported. […]
Intratumoral administration (“IT”), on the other hand, was accomplished by the following procedure: • (1) injecting a single volume of about 100 μl (0.1 mL) the test composition into the center of the tumor nodule with a 21-25 gauge needle over a time period of about 10-20 seconds; • (2) infusing the volume over about 10-15 seconds, and then leaving the needle in place for an additional time of about 10-20 seconds; and • (3) withdrawing the needle. Following the treatments, all mice were tagged, and the tumors were measured three times weekly with calipers. […]
Time-dependent changes in H1299 tumor nodule growth and/or sizes following different treatments were determined. […]

A549 tumor nodules = test: Murine tumor nodule model, A549 tumor volume doubling time; assay type: in vivo, mouse; settings: A549, 24 mg/kg paclitaxel
Protocol: Athymic nude Balb/c mice were engrafted with human non-small cell lung cancer cell lines (A549 and H1299, both of which were obtained from the American Type Culture Collection).
as §1, §2
Various formulations of paclitaxel were administered to the test animals bearing tumors, either systemically or intratumorally. Each animal was weighed at the time of treatment so that dosages could be adjusted to achieve the mg/kg amounts reported. Systemic administration was achieved by injecting the test composition into the intraperitoneal cavity of the test animal. For intraperitoneal (“IP”) injections, the animals received a total injection volume of approximately 1 mL.
Intratumoral administration (“IT”), on the other hand, was accomplished by the following procedure: • (1) injecting a single volume of about 100 μl (0.1 mL) the test composition into the center of the tumor nodule with a 21-25 gauge needle over a time period of about 10-20 seconds; • (2) infusing the volume over about 10-15 seconds, and then leaving the needle in place for an additional time of about 10-20 seconds; and • (3) withdrawing the needle. Following the treatments, all mice were tagged, and the tumors were measured three times weekly with calipers. Test animals were also weighed once weekly.
The tumor volume doubling time was determined from the tumor measurements in all treatment groups.

[1] = intratumoral, listed as conventional paclitaxel

Structure (SMILES): CC(=O)O[C@H]1C(=O)[C@@]2(C)[C@H]([C@H](OC(=O)c3ccccc3)[C@]3(O)C[C@H](OC(=O)[C@H](O)[C@@H](NC(=O)c4ccccc4)c4ccccc4)C(C)=C1C3(C)C)[C@]1(OC(C)=O)CO[C@@H]1C[C@@H]2O [conventionally formulated paclitaxel, paclitaxel]
- tumor volume doubling time (H1299 tumor nodules; intraperitoneal): 12 ± 1.9 days
- tumor volume doubling time (H1299 tumor nodules; intratumoral): 11.2 ± 1.9 days
- tumor volume doubling time (H1299 tumor nodules; [1]): 11 days
- tumor volume doubling time (A549 tumor nodules; intraperitoneal): 11.5 ± 2.3 days
- tumor volume doubling time (A549 tumor nodules; intratumoral): 10.2 ± 4.7 days
- tumor volume doubling time (A549 tumor nodules; [1]): 10 days
